Experimental findings from PMC3914206 are described below.

What all share (assay type): binding
Parameters in all cases: KINOMEscan: ABL1(F317L)-phosphorylated / KINOMEscan: ABL1(H396P)-nonphosphorylated / KINOMEscan: ABL1(H396P)-phosphorylated / KINOMEscan: ABL1(M351T)-phosphorylated / KINOMEscan: ABL1(T315I)-phosphorylated / KINOMEscan: ABL1-nonphosphorylated / KINOMEscan: ABL1-phosphorylated / KINOMEscan: ACVR2A / KINOMEscan: ACVR2B / KINOMEscan: ADCK3 / KINOMEscan: ADCK4 / KINOMEscan: AKT1 / KINOMEscan: AKT3 / KINOMEscan: ALK / KINOMEscan: ARK5 / KINOMEscan: AURKA / KINOMEscan: AURKC / KINOMEscan: BIKE / KINOMEscan: BMPR1A / KINOMEscan: BMPR1B / KINOMEscan: BMX / KINOMEscan: BRK / KINOMEscan: BRSK1 / KINOMEscan: BRSK2 / KINOMEscan: CAMK1 / KINOMEscan: CAMK1D / KINOMEscan: CAMK1G / KINOMEscan: CAMK2A / KINOMEscan: CAMK2B / KINOMEscan: AAK1 / KINOMEscan: CAMK2D / KINOMEscan: CAMK2G / KINOMEscan: ABL1(F317I)-nonphosphorylated / KINOMEscan: ABL1(F317I)-phosphorylated / KINOMEscan: ABL1(F317L)-nonphosphorylated: unit: % Ctrl
What all share (details): Compound Concentration 10 µM

Test [1] concerns the target T1, panel of 442 kinases (Homo sapiens, UniProt Q9UBF8).
T1 construct: purchased KINOMEscan
The text has this: (§1) We assessed the selectivity of members of this scaffold using the KINOMEscan methodology across a near comprehensive panel of 442 kinases [[18,27]].

In test [2] the target is T2, panel of 442 kinases (Homo sapiens, UniProt P53778).
T2 construct: purchased KINOMEscan
T2 sequence (P53778 1-367): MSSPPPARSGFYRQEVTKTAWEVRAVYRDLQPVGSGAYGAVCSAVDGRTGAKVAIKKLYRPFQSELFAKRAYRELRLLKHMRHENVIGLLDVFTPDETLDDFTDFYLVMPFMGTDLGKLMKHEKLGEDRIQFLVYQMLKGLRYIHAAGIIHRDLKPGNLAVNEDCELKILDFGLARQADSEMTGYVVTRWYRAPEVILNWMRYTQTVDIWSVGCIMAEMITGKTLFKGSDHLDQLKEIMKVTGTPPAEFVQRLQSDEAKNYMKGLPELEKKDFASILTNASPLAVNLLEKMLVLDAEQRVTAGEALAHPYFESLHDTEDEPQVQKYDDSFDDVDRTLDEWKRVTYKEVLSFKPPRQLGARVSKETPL
Source text: as §1

Test [3] addresses T3, panel of 442 kinases (Homo sapiens, UniProt O14965).
T3 construct: purchased KINOMEscan
T3 sequence (O14965 1-403): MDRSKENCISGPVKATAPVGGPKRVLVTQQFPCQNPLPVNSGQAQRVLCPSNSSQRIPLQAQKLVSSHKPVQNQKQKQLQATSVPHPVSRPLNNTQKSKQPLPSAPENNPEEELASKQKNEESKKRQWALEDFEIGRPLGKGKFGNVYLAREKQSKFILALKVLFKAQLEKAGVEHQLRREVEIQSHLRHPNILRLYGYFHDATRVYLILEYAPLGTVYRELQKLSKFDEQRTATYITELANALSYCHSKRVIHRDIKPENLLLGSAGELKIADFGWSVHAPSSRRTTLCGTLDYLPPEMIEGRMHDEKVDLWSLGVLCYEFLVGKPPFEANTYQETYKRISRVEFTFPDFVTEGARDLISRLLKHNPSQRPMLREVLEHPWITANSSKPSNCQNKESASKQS
Source text: as §1

Molecules are shown by their SMILES.

T1 sequence (Q9UBF8 whole entry): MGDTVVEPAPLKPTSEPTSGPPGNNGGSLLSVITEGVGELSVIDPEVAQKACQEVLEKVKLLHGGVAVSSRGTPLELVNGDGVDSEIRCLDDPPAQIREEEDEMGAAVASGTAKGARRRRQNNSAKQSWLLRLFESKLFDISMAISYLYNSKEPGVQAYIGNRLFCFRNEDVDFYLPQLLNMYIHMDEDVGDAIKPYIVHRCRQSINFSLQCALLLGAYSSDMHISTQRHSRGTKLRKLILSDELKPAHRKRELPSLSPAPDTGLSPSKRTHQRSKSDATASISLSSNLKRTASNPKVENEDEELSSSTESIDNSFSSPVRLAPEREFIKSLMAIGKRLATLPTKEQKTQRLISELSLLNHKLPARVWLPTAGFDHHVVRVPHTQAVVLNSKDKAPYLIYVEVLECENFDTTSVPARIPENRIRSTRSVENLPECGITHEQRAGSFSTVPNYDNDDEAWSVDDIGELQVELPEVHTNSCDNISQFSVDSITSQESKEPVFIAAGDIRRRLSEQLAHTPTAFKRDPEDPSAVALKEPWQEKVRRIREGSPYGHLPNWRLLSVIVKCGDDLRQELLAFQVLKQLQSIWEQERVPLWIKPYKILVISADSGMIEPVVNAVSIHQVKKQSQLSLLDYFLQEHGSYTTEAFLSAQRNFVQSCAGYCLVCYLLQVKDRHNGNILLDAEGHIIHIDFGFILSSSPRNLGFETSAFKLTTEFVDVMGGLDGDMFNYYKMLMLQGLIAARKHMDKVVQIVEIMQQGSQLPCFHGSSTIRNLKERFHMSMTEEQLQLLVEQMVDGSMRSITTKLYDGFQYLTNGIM

`COc1cc(C(=O)N2CCC(N3CCN(C)CC3)CC2)ccc1Nc1ncc2c(n1)N(C)c1ccccc1C(=O)N2C` [15 (LRRK2-IN-1)]: the “KINOMEscan: PIK4CB” value at panel of 442 kinases [1] amounted to 95. The “KINOMEscan: p38-gamma” value at panel of 442 kinases [2] is reported as 76. Besides, the “KINOMEscan: AURKA” value on panel of 442 kinases [3] came to 1.2.
For the compound `COc1cc(C(=O)N2CCC(N3CCN(C)CC3)CC2)ccc1Nc1ncc2c(n1)N1CCc3cccc(c31)C(=O)N2C` [Compound 24], the “KINOMEscan: AURKA” value at panel of 442 kinases [3] worked out at 28.
Take `COc1cc(C(=O)N2CCC(N3CCN(C)CC3)CC2)ccc1Nc1ncc2c(n1)N(C1CCCC1)c1ccccc1C(=O)N2C` [Compound 25, 11-cyclopentyl-2-((2-methoxy-4-(4-(4-methylpiperazin-1-yl)piperidine-1-carbonyl)phenyl)amino)-5-methyl-5H-benzo[e]pyrimido[5,4-b][1,4]diazepin-6(11H)-one]: the “KINOMEscan: PIK4CB” value on panel of 442 kinases [1] is 100. The “KINOMEscan: p38-gamma” value on panel of 442 kinases [2] is reported as 88. Also, the “KINOMEscan: AURKA” value on panel of 442 kinases [3] is 28.
On to `CCOc1cc(C(=O)N2CCC(N3CCN(C)CC3)CC2)ccc1Nc1ncc2c(n1)N(C1CCCC1)c1ccccc1C(=O)N2C` [Compound 26], for which the “KINOMEscan: PIK4CB” value at panel of 442 kinases [1] is reported as 100. Besides, at panel of 442 kinases [2], the “KINOMEscan: p38-gamma” value is on record as 32. On panel of 442 kinases [3], the “KINOMEscan: AURKA” value stood at 100.
